Measured values published in patent publication US12595289B2, “Therapeutic agent for breast cancer comprising BIG3-PHB2 interaction-inhibiting peptide derived from PHB2” (TOKUSHIMA UNIVERSITY, priority 2018, dated 2026).
Values joined by “and” are separate entries in the source; they are usually repeats but may differ in a detail not shown here. Equal entries are not always repeated. Positions of bridges follow the written chain, without caps; N, C: chain ends. Non-standard residues stand in square brackets, D forms with d. Residues, ends and D or L forms follow the SMILES beside them. No end group written: not given here. 2Nal = N[C@@H](Cc1ccc2ccccc2c1)C(=O)O; Nle = CCCC[C@H](N)C(=O)O; PEG = not defined here

Key:
[1] = system: Human breast cancer cell line MCF-7; experiment: Estrogen (E2)-dependent growth assay on MCF-7; format: cell-based; conditions: 24 hours; for suppression ratio of E2-dependent growth: MCF-7, 10 μM each peptide, 10 nM estrogen; for suppression ratio of estrogen-dependent growth: MCF-7, 10 nM estrogen, peptide concentration not given (FIG. 11B, 12B)
Protocol: (§1) Growth assay on MCF-7 was carried out by seeding cells into 48-well plates (2×10^4 cells/200 μL). First, on the next day after seeding, the medium was changed to phenol red-free DMEM/F12 (Thermo Fisher Scientific) supplemented with 10% FBS, 1% Antibiotic/Antimycotic solution, 0.1 mM NEAA, 1 mM sodium pyruvate, and 10 μg/mL insulin. 24 hours later, the cells were treated with 10 nM 17β-estradiol (estrogen, Sigma) alone or with 10 nM estrogen and a PHB2 sequence-derived peptide. Growth assay on MCF-10A was carried out by seeding cells into 48-well plates (2×10^4 cells/200 μL). 24 hours after seeding, PHB2 sequence-derived peptide was added. Growth assays were carried out using the Cell Counting Kit-8 (CCK-8) (Dojindo, Kumamoto, Japan). The data are shown by mean±standard deviation of three independent experiments.
PHB2 peptides 11-21aa and 76-88aa were cross-linked by three types of cross-linking methods (FIG. 10A: hexafluorobenzene cross-linking, decafluorobiphenyl cross-linking, and disulfide cross-linking) to prepare cross-linked PHB2 peptides (stapled PHB2 peptides) (FIG. 10B), and the suppressive effects of these peptides on estrogen-dependent growth were examined. In the experiment, breast cancer cells MCF-7 were seeded, 10 μM each PHB2 peptide and 10 nM estrogen were added after 48 hours, and the cell number was evaluated after another 24 hours by MTT assay.

[2] = system: Normal mammary gland epithelial cell line MCF-10A; experiment: Growth assay on normal mammary gland epithelial cells MCF-10A; format: cell-based
Protocol: as §1

[3] = system: Human breast cancer cell line MCF-7; experiment: Estrogen (E2)-dependent growth assay on MCF-7; format: cell-based; conditions: 10 nM estrogen
[4] = system: PHB2 (Ser39) phosphorylation; experiment: Ser39 phosphorylation of PHB2 in MCF-7 by Western blotting; format: cell-based, Human; conditions: MCF-7, 10 μM each peptide, 10 nM estrogen, 24 hours (FIG. 2C)
Protocol: For immunoblot analyses, after performing SDS-PAGE, the membranes blotted with proteins were blocked with 4% BlockAce solution (Dainippon Pharmaceutical, Osaka, Japan) for 3 hours and then incubated to react for 12 hours with antibodies against BIG3 (1:1,000), PHB2 (1:1,000) (Abcam, Cambridge, UK) and phosphorylated PHB2 (Ser39, Scrum, Tokyo, Japan). After allowing interaction with HRP-labeled secondary antibodies (anti-rat IgG-HRP for BIG3, 1:5,000; and anti-rabbit IgG-HRP for PHB2 and phosphorylated PHB2, 1:1,000) (Santa Cruz Biotechnology, Dallas, TX, USA) for 1 hour, the blots were developed with the Enhanced Chemiluminescence (ECL) system (GE Healthcare, Buckinghamshire, UK) and scanned using the Image Reader LAS-3000 mini (Fujifilm, Tokyo, Japan).

[5] = MCF-10A (FIG. 6B), 1 μM or 10 μM, up to 96 hours
[6] = MCF-10A, cyclic 11-21aa 4 μM, cyclic 76-88aa 2 μM (FIG. 7C)
[7] = MCF-7, 4 μM cyclic 11-21aa, 2 μM cyclic 76-88aa, up to 96 hours (FIG. 7B)
[8] = MCF-7, 10 μM peptide alone, after 96 hours

| Compound | suppression ratio of E2-dependent growth [1] | suppression ratio of estrogen-dependent growth [1] | other results |
| --- | --- | --- | --- |
| CCCC[C@@H]1NC(=O)CNC(=O)[C@H](CCCNC(=N)N)NC(=O)[C@@H]2CCCN2C(=O)CNC(=O)[C@H](C)NC(=O)[C@@H]2CCCN2C(=O)[C@H](CC(C)C)NC(=O)[C@H](CCCNC(=N)N)NC(=O)[C@@H]2CSSC[C@H](NC(=O)[C@H]([C@@H](C)O)NC(=O)CNC1=O)C(=O)N[C@@H](Cc1ccccc1)C(=O)N[C@@H](Cc1ccc3ccccc3c1)C(=O)N[C@@H](CCCNC(=N)N)C(=O)N[C@@H](CCCNC(=N)N)C(=O)N[C@@H](CCCNC(=N)N)C(=O)N[C@@H](CCCNC(=N)N)C(=O)N2 [cyclic 11-21aa] (cyclo(CRLPAGPRG[Nle]GTCF[2Nal]RRRR); disulfide 1-13) | enhanced suppression ratios compared to non-cyclic peptides |  | suppression ratio of E2-dependent growth ([1]; listed as cyclic peptide 11-21aa): 53%; effect on growth of MCF-10A [2, 5]: no effect on the growth; effect on growth of MCF-10A [2, 6]: no effect on growth; suppression ratio of E2-dependent growth [3, 7]: 41%; suppression ratio of E2-dependent growth [3, 8]: 67% |
| CC[C@H](C)[C@@H]1NC(=O)[C@H](CC(=O)O)NC(=O)[C@H](Cc2ccc(O)cc2)NC(=O)[C@H]([C@@H](C)CC)NC(=O)[C@H]([C@@H](C)CC)NC(=O)[C@@H]2CCCN2C(=O)[C@H](Cc2ccc(O)cc2)NC(=O)[C@H](CCC(N)=O)NC(=O)[C@@H]2CSSC[C@H](NC(=O)[C@H](CCCNC(=N)N)NC(=O)[C@@H]3CCCN3C(=O)[C@H](CCCNC(=N)N)NC(=O)[C@H](C)NC(=O)[C@H](CCCNC(=N)N)NC1=O)C(=O)N[C@@H](Cc1ccccc1)C(=O)N[C@@H](Cc1ccc3ccccc3c1)C(=O)N[C@@H](CCCNC(=N)N)C(=O)N[C@@H](CCCNC(=N)N)C(=O)N[C@@H](CCCNC(=N)N)C(=O)N[C@@H](CCCNC(=N)N)C(=O)N2 [cyclic 76-88aa] (cyclo(CQYPIIYDIRARPRCF[2Nal]RRRR); disulfide 1-15) | enhanced suppression ratios compared to non-cyclic peptides |  | suppression ratio of E2-dependent growth ([1]; listed as cyclic peptide 76-88aa): 58%; effect on growth of MCF-10A [2, 5]: no effect on the growth; effect on growth of MCF-10A [2, 6]: no effect on growth; suppression ratio of E2-dependent growth [3, 7]: 59%; suppression ratio of E2-dependent growth [3, 8]: 72% |
| No. 2: PHB2 sequence-derived peptide 42-50aa (TVEGGHRAI; not fully specified (C-terminus)) | 22% and 20% |  |  |
| No. 3: PHB2 sequence-derived peptide 38-50aa (ESVFTVEGGHRAI; not fully specified (C-terminus)) | 23% and 17% |  |  |
| No. 6: PHB2 peptide 86-100aa (negative control) (RPRKISSPTGSKDLQ; not fully specified (C-terminus)) | about 10% |  | band intensity of Ser39 phosphorylation of PHB2 compared to ERAP treatment [4]: 10% |
| No. 50: PHB2 sequence-derived peptide 75-89aa (FQYPIIYDIRARPRK; not fully specified (C-terminus)) | almost the same suppressive effect |  |  |
| SEQ ID NO: 115: cross-linked PHB2 peptide 11-21aa without polyarginine at the C terminus (CRLPAGPRG[Nle]GTC-NH2; linker 1-13 via hexafluorobenzene) | about 70% |  |  |
| SEQ ID NO: 116: cross-linked PHB2 peptide 11-21aa without polyarginine at the C terminus (CRLPAGPRG[Nle]GTC-NH2; linker 1-13 via decafluorobiphenyl) | about 70% |  |  |
| SEQ ID NO: 117: cross-linked PHB2 peptide 11-21aa without polyarginine at the C terminus (CRLPAGPRG[Nle]GTC-NH2; disulfide 1-13) | about 70% |  |  |
| SEQ ID NO: 119: cross-linked PHB2 peptide 76-88aa without polyarginine at the C terminus (CQYPIIYDIRARPRC-NH2; linker 1-15 via hexafluorobenzene) | about 70% |  |  |
| SEQ ID NO: 120: cross-linked PHB2 peptide 76-88aa without polyarginine at the C terminus (CQYPIIYDIRARPRC-NH2; linker 1-15 via decafluorobiphenyl) | about 70% |  |  |
| SEQ ID NO: 121: cross-linked PHB2 peptide 76-88aa without polyarginine at the C terminus (CQYPIIYDIRARPRC-NH2; disulfide 1-15) | about 70% |  |  |
| SEQ ID NO: 123: cyclic PHB2 peptide 11-21aa, hexafluorobenzene cross-linked (CRLPAGPRG[Nle]GTCF[Nal]RRRR; linker 1-13 via hexafluorobenzene; not fully specified (C-terminus)) |  | about 70% |  |
| SEQ ID NO: 124: cyclic PHB2 peptide 11-21aa, decafluorobiphenyl cross-linked (CRLPAGPRG[Nle]GTCF[Nal]RRRR; linker 1-13 via decafluorobiphenyl; not fully specified (C-terminus)) |  | about 70% |  |
| SEQ ID NO: 126: cyclic PHB2 peptide 76-88aa, hexafluorobenzene cross-linked (CQYPIIYDIRARPRCF[Nal]RRRR; linker 1-15 via hexafluorobenzene; not fully specified (C-terminus)) |  | about 80% |  |
| SEQ ID NO: 127: cyclic PHB2 peptide 76-88aa, decafluorobiphenyl cross-linked (CQYPIIYDIRARPRCF[Nal]RRRR; linker 1-15 via decafluorobiphenyl; not fully specified (C-terminus)) |  | about 80% |  |
| SEQ ID NO: 133: PHB2 peptide 11-22aa in which glycines at positions 15 and 18 were substituted with D-alanines (RLPA[dA]PR[dA]MGTARRRRRRRR-NH2) |  | no suppressive effect |  |
| SEQ ID NO: 134: PHB2 peptide 11-22aa in which glycines at positions 15 and 18 were substituted with D-leucines (RLPA[dL]PR[dL]MGTARRRRRRRR-NH2) |  | about 65% |  |
| branched bound: 11-22aa and 76-90aa sequences synthesized with branching, linked via a PEG sequence (peptide 1 RLPAGPRGMGTA; peptide 2 QYPIIYDIRARPRKI; linker (positions not given here) via PEG; not fully specified (N-terminus); reading uncertain; also: branched construct, branch and link places not given here) | 57% |  | inhibition ratio of MCF-10A growth ([2]; MCF-10A, 10 μM each peptide, 24 hours): no effect on growth |
